# Laboratory results reported in ChEMBL document CHEMBL4819065, “Gelstriamine A, a Triamino Monoterpene Indole Alkaloid with a Caged 6/5/7/6/6/5 Scaffold and Analgesic Alkaloids from Gelsemium elegans Stems” (2021).
# Calls of active or inactive are those of the source. The calls are words filed in the database; no cut-off is given here.
# Test system: Mus musculus
# Assay: Analgesic activity in Kunming mouse assessed as inhibition of acetic acid-induced writhing at 0.04 mg/kg, ip pretreated with compound for 30 mins followed by acetic acid challenge and measured after 30 mins
# Assay type: functional
# Conditions: 1 h, time 60 min
row,SMILES,inhibition in vivo at 0.04 mg/kg
1,C/C=C1\C[N@+](C)([O-])[C@H]2C[C@@]3(C(=O)Nc4ccccc43)[C@H]3C[C@@H]1[C@@H]2CO3,67.6%

# Test system: Mus musculus
# Assay: Analgesic activity in Kunming mouse assessed as inhibition of acetic acid-induced writhing at 1 mg/kg, ip pretreated with compound for 30 mins followed by acetic acid challenge and measured after 30 mins
# Assay type: functional
# Conditions: 1 h, time 60 min
row,SMILES,inhibition in vivo at 1 mg/kg
1,CC[C@@]12OC(=O)N[C@@H]1N(C)[C@H]1C[C@@]3(C(=O)N(OC)c4ccccc43)[C@H]3C[C@@H]2[C@@H]1CO3,64.7%

# Test system: Mus musculus
# Assay: Analgesic activity in Kunming mouse assessed as inhibition of acetic acid-induced writhing at 5 mg/kg, ip pretreated with compound for 30 mins followed by acetic acid challenge and measured after 30 mins
# Assay type: functional, organism-based
# Conditions: time 60.0 min
row,SMILES,Activity
1,CON1C(=O)[C@@]2(C[C@@H]3N[C@](CO)([C@@H](C)O)[C@@H]4C[C@H]2OC[C@H]34)c2ccccc21,Active
2,C/C=C1\CN2[C@H]3C[C@@H]1[C@H](CO)[C@@H]2Cc1c3[nH]c2ccccc12,Active
3,C/C=C1\CN[C@H]2C[C@@]3(C(=O)N(OC)c4cc(OC)ccc43)[C@H]3C[C@@H]1[C@@H]2CO3,Active
4,C/C=C1\CN(C)[C@H]2C[C@@]3(C(=O)N(OC)c4cc(O)ccc43)[C@H]3C[C@@H]1[C@@H]2CO3,Active
5,C/C=C1\C[N@+](C)([O-])[C@H]2C[C@@]3(C(=O)N(OC)c4cc(O)ccc43)[C@H]3C[C@@H]1[C@@H]2CO3,Active
6,C=C[C@@]12CN[C@@H]3C[C@]14C(=Nc1ccccc14)[C@H]1C[C@@H]2[C@@H]3CO1,Active
7,CC[C@@]1(CO)N[C@H]2C[C@@]3(C(=O)N(OC)c4ccccc43)[C@H]3C[C@@H]1[C@@H]2CO3,Active
8,CC[C@@]12OC(=O)N[C@@H]1N(C)[C@H]1C[C@@]3(C(=O)N(OC)c4ccccc43)[C@H]3C[C@@H]2[C@@H]1CO3,Active
9,c1ccc2[nH]c(-c3cc4c(cn3)CCCC4)cc2c1,Active
10,C/C=C1\CN(C)[C@H]2C[C@@]3(C(=O)N(OC)c4ccccc43)[C@H]3C[C@@H]1[C@@H]2CO3,Active
11,C/C=C1\C[N@+](C)([O-])[C@H]2C[C@@]3(C(=O)N(OC)c4ccccc43)[C@H]3C[C@@H]1[C@@H]2CO3,Active
12,C/C=C1\CN2[C@H]3C[C@@H]1[C@@H](CO)[C@@H]2Cc1c3[nH]c2ccccc12,Active
13,C/C=C1\C[N@+](C)([O-])[C@H]2C[C@@]3(C(=O)Nc4ccccc43)[C@H]3C[C@@H]1[C@@H]2CO3,Active
14,C/C=C1\C[N@@+]2([O-])[C@H]3C[C@@H]1[C@@H](CO)[C@@H]2Cc1c3[nH]c2ccccc12,Active
15,C/C=C1\CN(C)[C@H]2C[C@@]3(C(=O)Nc4ccccc43)[C@H]3C[C@@H]1[C@@H]2CO3,Active
16,COc1ccc2c(c1)N(OC)C(=O)[C@@]21C[C@@H]2N[C@](CO)([C@@H](C)O)[C@@H]3C[C@H]1OC[C@H]23,Active
17,C=CC12CN[C@@H]3[C@H]4CO[C@H](CC41)[C@]1(C(=O)Nc4ccccc41)[C@@H]32,Active

# Test system: Mus musculus
# Assay: Analgesic activity in Kunming mouse assessed as inhibition of acetic acid-induced writhing at 0.2 mg/kg, ip pretreated with compound for 30 mins followed by acetic acid challenge and measured after 30 mins
# Assay type: functional
# Conditions: 1 h, time 60 min
row,SMILES,inhibition in vivo at 0.2 mg/kg
1,C/C=C1\C[N@+](C)([O-])[C@H]2C[C@@]3(C(=O)Nc4ccccc43)[C@H]3C[C@@H]1[C@@H]2CO3,76.1%
